From paper PMC12298423, “Characterization of Novel ACE-Inhibitory Peptides from Nemopilema nomurai Jellyfish Venom Hydrolysate: In Vitro and In Silico Approaches” (Marine Drugs, 2025)
Peptide text beside a SMILES is read from it.

What was measured:
ACE = ACE (Homo sapiens, UniProt P12821); assay: Lineweaver–Burk plot and secondary plot (ACE inhibition kinetics); type: biochemical; conditions: secondary plot from Lineweaver–Burk plots; substrate HHL 0.625 to 20 mM
Procedure: The inhibition pattern of the peptides against ACE was analyzed using Lineweaver–Burk plots. ACE activity was measured at varying concentrations of each peptide (IGDEPRHQYL: 0, 5, and 10 µM; IVGRPLANG: 0, 20, and 40 µM) in the presence of different concentrations of the substrate hippuryl-histidyl-leucine (HHL), ranging from 0.625 to 20 mM. The Michaelis constant (Km) and maximum reaction velocity (Vmax) were calculated from the slope and y-intercept of the Lineweaver–Burk plots. Additionally, secondary plots were generated to determine the inhibition constant (Ki) values for each peptide based on the derived Km and Vmax values.

[1] = tested on: pepsin, trypsin and chymotrypsin; assay: Resistance to simulated GI digestion assay; type: in vitro ADME; conditions: peptide 100 and 200 µM; pepsin 0.01% pH 2.0, 37 °C, 3 h, then trypsin and chymotrypsin each 0.01% pH 7.5, 3 h; read-out ACE-inhibitory activity; triplicate
Procedure: The stability of the synthesized peptides against gastrointestinal proteases was evaluated using a slightly modified method based on Dong et al. (2024). Peptide solutions at concentrations of 100 and 200 µM were sequentially subjected to enzymatic digestion. Initially, the peptides were incubated with pepsin (0.01%, pH 2.0) at 37 °C for 3 h. This was followed by a second digestion step with trypsin and chymotrypsin (each at 0.01%, pH 7.5) for an additional 3 h under the same temperature conditions. To terminate enzymatic activity, the reaction mixtures were boiled for 10 min. The samples were then centrifuged at 8000× g for 15 min, and the resulting supernatants were collected. The ACE-inhibitory activity of the digested peptide solutions was subsequently analyzed to assess their enzymatic stability.

[2] = biological target: T1, angiotensin-converting enzyme (ACE) (Homo sapiens, UniProt P12821); assay: ACE-inhibitory activity, ACE Kit-WST (Dojindo); type: biochemical; conditions: peptide 0.01-1000 µM, 37 °C 1 h, absorbance 450 nm, triplicate, read-out: IC50 (ACE inhibition)
T1 construct: purchased Dojindo Laboratories, Kumamoto, Japan
T1 sequence (P12821 30-1306, species assumed): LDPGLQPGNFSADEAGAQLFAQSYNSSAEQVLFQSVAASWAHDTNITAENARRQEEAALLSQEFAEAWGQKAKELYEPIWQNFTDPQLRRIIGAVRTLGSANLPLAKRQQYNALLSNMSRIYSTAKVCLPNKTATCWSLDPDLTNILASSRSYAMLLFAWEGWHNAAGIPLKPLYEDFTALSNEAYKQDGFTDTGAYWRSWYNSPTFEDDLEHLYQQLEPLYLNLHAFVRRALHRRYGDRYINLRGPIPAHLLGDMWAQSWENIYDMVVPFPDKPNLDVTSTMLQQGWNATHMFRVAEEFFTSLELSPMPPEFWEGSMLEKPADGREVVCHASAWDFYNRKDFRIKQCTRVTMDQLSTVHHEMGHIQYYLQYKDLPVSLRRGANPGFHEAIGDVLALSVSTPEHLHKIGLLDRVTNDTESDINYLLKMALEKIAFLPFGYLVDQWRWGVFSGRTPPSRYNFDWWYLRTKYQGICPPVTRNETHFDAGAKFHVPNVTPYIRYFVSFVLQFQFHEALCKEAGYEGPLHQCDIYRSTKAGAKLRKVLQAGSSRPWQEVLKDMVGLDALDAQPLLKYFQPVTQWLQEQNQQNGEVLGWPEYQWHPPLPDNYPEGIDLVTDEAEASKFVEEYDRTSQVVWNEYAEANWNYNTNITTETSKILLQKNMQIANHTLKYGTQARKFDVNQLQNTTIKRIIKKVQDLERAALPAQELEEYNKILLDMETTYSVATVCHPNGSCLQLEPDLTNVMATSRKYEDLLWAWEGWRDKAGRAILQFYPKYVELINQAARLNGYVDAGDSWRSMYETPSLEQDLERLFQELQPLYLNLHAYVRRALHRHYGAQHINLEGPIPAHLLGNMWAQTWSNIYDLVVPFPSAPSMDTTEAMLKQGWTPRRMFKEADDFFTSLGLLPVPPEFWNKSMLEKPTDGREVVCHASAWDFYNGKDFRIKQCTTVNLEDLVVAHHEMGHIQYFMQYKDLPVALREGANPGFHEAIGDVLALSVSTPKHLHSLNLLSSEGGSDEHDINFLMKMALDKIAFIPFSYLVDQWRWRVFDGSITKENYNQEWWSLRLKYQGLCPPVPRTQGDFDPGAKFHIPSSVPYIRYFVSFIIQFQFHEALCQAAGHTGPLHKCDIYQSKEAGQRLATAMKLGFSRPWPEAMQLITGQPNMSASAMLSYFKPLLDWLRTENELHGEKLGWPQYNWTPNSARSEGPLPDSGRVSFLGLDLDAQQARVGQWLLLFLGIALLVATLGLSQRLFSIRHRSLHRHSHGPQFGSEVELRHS
Procedure: The ACE-inhibitory activity of the peptides was evaluated in vitro using the Dojindo assay kit, following the same procedure as described in our previous study. […] Captopril was used as a positive control to validate the assay system. To assess the stability of the peptides under simulated gastrointestinal (GI) conditions, a two-step enzymatic hydrolysis was conducted. The ACE-inhibitory activity of the peptides was measured both before and after digestion (Figure 1B,C).
The ACE-inhibitory activity of the peptides was assessed using the ACE Kit-WST (Dojindo Laboratories, Kumamoto, Japan) following the manufacturer’s protocol. Both peptides were dissolved in distilled water, and serial dilutions were prepared at concentrations of 0.01, 0.10, 1, 10, 100, and 1000 µM. Captopril was used as the positive control. For the assay, 20 µL of each sample solution was added to the designated wells, including the sample, blank 1, and blank 2 wells. Subsequently, 20 µL of substrate buffer was added to all wells. […] Absorbance was measured at 450 nm using a microplate reader. ACE-inhibitory activity was calculated using the following equation:ACE inhibition (%) = (Ablank1 − Asample)/(Ablank1 − Ablank2) × 100 where Ablank1 is the absorbance of the control (without inhibitor), Ablank2 is the absorbance of the reagent alone, and Asample is the absorbance of the peptide-treated sample.

Sequence of ACE (P12821 30-1306, species assumed): as above

SMILES | Ki (ACE) [µM] | ACE-inhibitory activity before and after simulated GI digestion [1] | IC50 [2] [µM]
CC[C@H](C)[C@H](N)C(=O)NCC(=O)N[C@@H](CC(=O)O)C(=O)N[C@@H](CCC(=O)O)C(=O)N1CCC[C@H]1C(=O)N[C@@H](CCCNC(=N)N)C(=O)N[C@@H](Cc1c[nH]cn1)C(=O)N[C@@H](CCC(N)=O)C(=O)N[C@@H](Cc1ccc(O)cc1)C(=O)N[C@@H](CC(C)C)C(=O)O [IGDEPRHQYL] (H-IGDEPRHQYL-OH) | 5.46 | retained their ACE-inhibitory activity | 5.68
CC[C@H](C)[C@H](N)C(=O)N[C@H](C(=O)NCC(=O)N[C@@H](CCCNC(=N)N)C(=O)N1CCC[C@H]1C(=O)N[C@@H](CC(C)C)C(=O)N[C@@H](C)C(=O)N[C@@H](CC(N)=O)C(=O)NCC(=O)O)C(C)C [IVGRPLANG] (H-IVGRPLANG-OH) | 51.4 | retained their ACE-inhibitory activity | 23.8
